Test system: Human prostate cancer cell lines (PC-3 cells)
Assay: Measurement of cell death-inducing activity (Test Example 1)
Format: cell-based
Conditions: PC-3, 48 h, 48 hours after addition, tested at 10, 1, 0.1, 0.025 and 0.00625 μmol/L, qualitative evaluation of 10 fields, read-out: Concentration showing the cell death-inducing activity (cell death-inducing rate not less than 40%)
Outline: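 Compound treatment lasted 48 h at 10 to 0.00625 μmol/L (five levels, DMSO as control) on PC-3 cells pre-cultured 48 h at 37 °C, 5% CO2 after seeding at 1×10^5 cells/well. A cell death-inducing rate of 40% or more counted as active.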

SMILES | minimal effective concentration [µM]
Cc1ccc(-c2cc(NC(=O)OCc3ccc4nn(C)cc4c3)n(C)n2)c(C)c1 [Example 9-295] | 0.1
Cc1ccccc1-c1nc(C)c(NC(=O)OCc2ccc3c(c2)nc2n3CCC2)s1 [Example 9-99] | 1
CCn1ncc2cc(COC(=O)Nc3sc(-c4ccccc4OC)nc3C)ccc21 [Example 9-134] | 0.025
CCc1nc(-c2ccc(Cl)cc2OC)sc1NC(=O)OCc1ccc2c(c1)nc1n2CCOC1 [Example 9-169] | 0.00625
Cc1cc(F)ccc1-c1nc(C)c(NC(=O)OCc2ccc3c(c2)nnn3C)s1 [Example 9-19] | 0.025
CCn1nc(-c2ccc(F)cc2OC)cc1NC(=O)OCc1ccc2c(c1)ncn2C [Example 9-218] | 0.025
CCn1c(C)nc2cc(COC(=O)Nc3sc(-c4ccc(C)cc4C)nc3C)ccc21 [Example 9-88] | 0.1
Cc1cc(/C=N/NC(=O)c2sc(-c3ccc(Cl)cc3)nc2C)cc(C)c1O [Example 23-8] | 1
Cc1cc(F)ccc1-c1nc(C)c(NC(=O)OCc2ccc3c(c2)nc2n3CCOC2)s1 [Example 9-97] | 0.025
CCn1nc(-c2ccccc2OC)cc1NC(=O)OCc1ccc2c(c1)ncn2CC [Example 9-216] | 1
COc1cc(Cl)ccc1-c1nc(C)c(C(=O)N/N=C/c2ccc(O)cc2)s1 [Example 23-75] | 1
CCCc1nc(-c2ccc(Cl)cc2)sc1C(=O)N/N=C/c1cc(C)c(O)c(C)c1 [Example 23-107] | 10
COc1ccccc1-c1cc(NC(=O)OCc2ccc3c(c2)nc2n3CCCC2)n(C)n1 [Example 9-263] | 1
Cc1cccnc1-c1nc(C)c(C(=O)N/N=C/c2cc(C)c(O)c(C)c2)s1 [Example 23-119] | 10
COc1ccc(-c2cc(NC(=O)OCc3ccc4nn(C)cc4c3)n(C)n2)c(OC)c1 [Example 9-294] | 1
COc1cc(C)ccc1-c1nc(C)c(NC(=O)OCc2ccc3c(c2)ncn3C)s1 [Example 9-40] | 0.00625
Cc1nc(-c2ccc(F)cc2Cl)sc1COC(=O)Nc1ccc2c(c1)ncn2C [Example 13-11] | 0.025
Cc1nc(-c2ccc(Cl)s2)sc1NC(=O)OCc1ccc2c(c1)ncn2C [Example 9-193] | 1
CCCCCCc1nc(-c2ccc(Cl)cc2)sc1C(=O)N/N=C/c1ccc(OC)c(O)c1 [Example 23-30] | 10
COc1cc(C)ccc1-c1cc(NC(=O)OCc2ccc3nn(C)cc3c2)n(C)n1 [Example 9-293] | 0.1
Cc1ccc(-c2nc(C)c(NC(=O)OCc3ccc4c(c3)nc3n4CCCC3)s2)c(C)c1 [Example 9-113] | 0.025
COc1cc(Cl)ccc1-c1nc(C)c(C(=O)NN(C)Cc2cc(C)c(O)c(C)c2)s1 [Example 17-4, 2-(4-Chloro-2-methoxyphenyl)-4-methylthiazole-5-carboxylic acid N′-(4-hydroxy-3,5-dimethylbenzyl)-N′-methyl hydrazide] | 10
COc1cc(Cl)ccc1-c1cc(COC(=O)Nc2ccc3c(cnn3C)c2)n(C)n1 [Example 13-127] | 0.1

SMILES | minimal effective concentration [µM]
COc1ccccc1-c1cc(C(=O)N/N=C/c2cc(C)c(O)c(C)c2)[nH]n1 [Example 22-6] | 1
Cc1ccc(-c2nc(C)c(NC(=O)OCc3ccc4c(c3)nc3n4CCCCC3)s2)c(C)c1 [Example 9-124] | 10
COc1cc(F)ccc1-c1cc(COC(=O)Nc2ccc3c(c2)nc2n3CCCC2)n(C)n1 [Example 13-116] | 0.025
COc1cc(Cl)ccc1-c1nc(C)c(C(=O)NNCc2cc(C)c(O)c(C)c2)s1 [Example 17-3, 2-(4-Chloro-2-methoxyphenyl)-4-methylthiazole-5-carboxylic acid N′-(4-hydroxy-3,5-dimethylbenzyl)hydrazide] | 1
Cc1ccc(-c2cc(COC(=O)Nc3ccc4c(c3)nc3n4CCOC3)n(C)n2)c(C)c1 [Example 13-103] | 0.00625
CCn1nc(-c2ccc(C)cc2OC)cc1NC(=O)OCc1ccc2c(c1)nc1n2CCOC1 [Example 9-250] | 0.025
Cc1cc(/C=N/NC(=O)c2cc(-c3ccc(Cl)cc3Cl)n[nH]2)cc(C)c1O [Example 21-11] | 1
Cc1nc(C)c(C(=O)N/N=C/c2cc(C)c(O)c(C)c2)s1 [Example 23-133] | 10
CCOc1ccc(CN(C)NC(=O)c2sc(-c3ccc(Cl)cc3OC)nc2C)cc1 [Example 16-19] | 0.1
Cc1ccc(-c2cc(NC(=O)OC(C)c3ccc4c(c3)ncn4C)n(C)n2)c(C)c1 (centres unmarked) [Example 9-339] | 10
Cc1cc(/C=N/NC(=O)c2cnc(-c3ccccc3C)[nH]2)ccc1O [Example 25-4, 2-(2-Methylphenyl)-3H-imidazole-4-carboxylic acid[1-(4-hydroxy-3-methylphenyl)methylidene]hydrazide] | 10
CCc1nc(-c2ccc(C)cc2OC)sc1NC(=O)OCc1ccc2c(c1)nc1n2CCOC1 [Example 9-358] | 0.025
COc1cc(Cl)ccc1-c1nc(C)c(NC(=O)OCc2ccc3nn(C)cc3c2)s1 [Example 9-144] | 0.025
Cc1ccc(-c2nc(C)c(NC(=O)OCc3ccc4c(c3)ncn4C)s2)c(C)c1 [Example 9-42] | 0.00625
COc1ccccc1-c1nc(C)c(NC(=O)OCc2ccc3c(c2)nc(C)n3C)s1 [Example 9-74] | 1
CCCc1nc(-c2ccc(C)cc2C)sc1NC(=O)OCc1ccc2c(c1)ncn2C [Example 9-184] | 1
CCc1nc(-c2ccc(Cl)cc2OC)sc1NC(=O)OCc1ccc2nn(C)cc2c1 [Example 9-364] | 0.025
CCc1nc(-c2ccc(C)cc2C)sc1NC(=O)OCc1ccc2c(c1)ncn2C [Example 9-182] | 0.025
Cc1ccc(-c2cc(NC(=O)OCc3ccc4c(c3)nc3n4CCOC3)n(C)n2)c(C)c1 [Example 9-251] | 0.025
COc1ccccc1-c1nc(C)c(C(=O)N/N=C/c2ccc(N(C)C)cc2)s1 [Example 23-88] | 0.1
CCn1cc2cc(COC(=O)Nc3sc(-c4ccc(OC)cc4OC)nc3C)ccc2n1 [Example 9-156] | 0.1
Cc1cc(Cl)ccc1-c1nc(C)c(COC(=O)Nc2ccc3nn(C)cc3c2)s1 [Example 13-50] | 0.025
CCc1nc(-c2ccc(C)cc2C)sc1NC(=O)OCc1ccc2c(cnn2CC)c1 [Example 9-175] | 0.1

SMILES | minimal effective concentration [µM]
Cc1ccc(-c2nc(C)c(COC(=O)Nc3ccc4c(c3)ncn4C)s2)c(C)c1 [Example 13-8] | 0.025
COc1cc(Cl)ccc1-c1nc(C)c(C(=O)NN(C)Cc2ccc(SC)cc2)s1 [Example 16-22] | 1
COc1cc(F)ccc1-c1cc(NC(=O)OCc2ccc3c(c2)nc2n3CCC2)n(C)n1 [Example 9-256] | 0.1
COc1ccc(/C=N/NC(=O)c2sc(-c3ccc(Cl)cc3)nc2C2CC2)cc1O [Example 23-101] | 10
CCn1ncc2cc(COC(=O)Nc3cnc(-c4ccccc4OC)s3)ccc21 [Example 9-179] | 10
COc1ccc(/C=N/NC(=O)c2oc(-c3ccccc3OC)nc2C)cc1O [Example 26-2, 2-(2-Methoxyphenyl)-4-methyloxazole-5-carboxylic acid[N′-(3-hydroxy-4-methoxylphenyl)methylidene]hydrazide] | 10
COc1cc(Cl)ccc1-c1nc(C)c(NC(=O)OCc2ccc3c(c2)nnn3C)s1 [Example 9-15] | 0.00625
COc1cc(Cl)ccc1-c1nc(C)c(COC(=O)Nc2ccc3c(c2)nc2n3C(C)CCC2)s1 (centres unmarked) [Example 13-36] | 10
COc1ccc(/C=N/NC(=O)c2sc(-c3ccccc3C(F)(F)F)nc2C)cc1O [Example 23-13] | 1
CCn1cnc2cc(NC(=O)OCc3sc(-c4ccc(F)cc4Cl)nc3C)ccc21 [Example 13-18] | 0.025
CCCc1nc(-c2ccc(Cl)cc2OC)sc1NC(=O)OCc1ccc2c(c1)ncn2C [Example 9-183] | 1
CCc1nc(-c2ccc(C)cc2C)sc1NC(=O)OCc1ccc2nn(CC)cc2c1 [Example 9-371] | 1
CCc1nc(-c2ccccc2OC)sc1NC(=O)OCc1ccc2c(c1)nc1n2CCCC1 [Example 9-351] | 1
COc1ccc(CN(C)NC(=O)c2sc(-c3ccc(Cl)cc3)nc2C)cc1 [Example 16-2] | 10
COc1ccc(/C=N/NC(=O)c2sc(-c3ccc(F)cc3)nc2C)cc1O [Example 23-73] | 0.1
COc1ccc(/C=N/NC(=O)c2cc(-c3ccccc3C)n[nH]2)cc1O [Example 22-3] | 1
Cc1nc(-c2cccs2)sc1NC(=O)OCc1ccc2c(c1)ncn2C [Example 9-191] | 10
COc1ccccc1-c1cc(COC(=O)Nc2ccc3c(c2)ncn3C)sn1 [Example 47-2] | 1
COc1ccc(-c2nc(C)c(NC(=O)OCc3ccc4c(c3)ncn4C(C)C)s2)c(OC)c1 [Example 9-72] | 1
COc1ccc(/C=N/NC(=O)c2sc(-c3ccccc3C)nc2C)cc1O [Example 23-12] | 0.1
Cc1ccccc1-c1nc(C)c(NC(=O)OCc2ccc3c(c2)nnn3C)s1 [Example 9-12] | 1
COc1ccc(/C=N/NC(=O)c2sc(-c3ccccc3F)nc2C)cc1 [Example 23-65] | 1

— patent US9200008B2 (ASKA PHARMACEUTICAL CO., LTD., priority 2010, dated 2015)
